# Patent US8598314B2 (priority 2007, dated 2013)
# Where no end group is shown, it is not given here. [ ]: non-standard residue; d: D form. NMeY = CN[C@@H](Cc1ccc(O)cc1)C(=O)O
# Assays:
# NIH/Swiss female mice = assay: Transient effect on blood glucose and body weight; type: in vivo; conditions: 250 nmol/kg subcutaneous injection; for effect on body weight (in words): FIGS. 14B and 15B; for return of body weight to pre-treatment levels (in words): day 5, FIG. 15B
# Experimental: A subcutaneous injection (200 μL) of vehicle (PBS) or test compound was given to NIH/Swiss female mice immediately following baseline glucose and body weight measurement. Tail blood glucose samples were measured (OneTouch® Ultra®, LifeScan Inc., Milpitas, Calif.) at baseline (time=0) and 2, 4, 8, 24, 48, 72 and 96 hrs. Body weight was measured daily. Significant test sample effects were identified by ANONA (p<0.05) followed by Dunnett's post test (GraphPad PRISM®, version 4.00 for Windows, GraphPad Software, San Diego, Calif.). Points in FIG. 14A, FIG. 14B, FIG. 15A and FIG. 15B represent mean±SD (standard deviation).
# [1] = Peptide stability in human kidney brush border membranes; conditions: Table 6
# Experimental: The tubes were incubated in VorTemp 56™ (Eurotech Labs, UK) at 37° C. vortexed at 500 RPM. At time points of 0, 1, 2, 3, 4, and 5 hours, 200 μl STOP solution (50% ACN, 1% formic acid) was added to a given tube, and the samples were allowed to incubate until the end of the experiment. The samples were collected after 5 hours, centrifuged, and 200 μl of the supernatants were transferred into mass spectrometry vials. The intensities of the mother ions in each vial were analyzed with API 150EX™ mass spectrometer (Applied Biosystems, Foster City, Calif.) and quantified using the ANALYST™ program.
# The hKBBM assay was also performed in the presence of valinepyrrolidide, a DPP-IV inhibitor.
# plasma carboxypeptidase = assay: Carboxypeptidase activity assay, PYY(3-36) in human plasma; type: biochemical; conditions: 0.5 mM in human plasma, FIGS. 10-12
# Experimental: Carboxypeptidase activity assays were performed in the presence of various agents to test for carboxypeptidase inhibitor activity of the agents.
# The remainder of the sample was placed in an incubator at 37° C., mixing at 600 RPM for sixty minutes. At 10 minute intervals, a 100 μl sample of the mixture was removed and transferred to a separate microcentrifuge tubes. Following the transfer of the 100 μL sample at the zero time point and each 10 minute interval, each collected sample was extracted by slow addition of 100 μl cold 0.2% formic acid:acetonitrile, while mixing. After addition of the acetonitrile solution, the sample was vortex mixed at high speed for 15 seconds. The extracted samples were stored at −20° C. for at least 20 minutes and then centrifuged at 11,000×g for 10 minutes at 5° C. The supernatant of each sample was transferred to a new microcentrifuge tube, centrifuged again, and finally transferred for LC/MS analysis. The MS analysis was a Q1 single ion monitoring method that detects the most intense ion of the parent molecule and the peptide fragment of interest.
Compound,effect on body weight (in words) (NIH/Swiss female mice),return of body weight to pre-treatment levels (in words) (NIH/Swiss female mice),Stability in hKBBM [1],inhibition of the formation of PYY(3-35) (in words) (plasma carboxypeptidase)
CC[C@H](C)[C@H](NC(=O)[C@H](Cc1ccccc1)NC(=O)[C@H](CC(C)C)NC(=O)[C@H](CCCNC(=N)N)NC(=O)[C@@H](NC(=O)[C@H](C)NC(=O)[C@H](CCC(=O)O)NC(=O)[C@H](CCC(=O)O)NC(=O)[C@H](CCC(=O)O)NC(=O)[C@H](CC(C)C)NC(=O)[C@H](CCC(N)=O)NC(=O)[C@H](CCCCN)NC(=O)[C@H](CO)NC(=O)[C@H](CC(C)C)NC(=O)[C@H](CC(=O)O)NC(=O)[C@H](CO)NC(=O)[C@@H](NC(=O)[C@H](Cc1ccccc1)NC(=O)[C@@H](NC(=O)CNC(=O)[C@H](CCC(=O)O)NC(=O)CNC(=O)[C@@H](N)Cc1c[nH]cn1)[C@@H](C)O)[C@@H](C)O)C(C)C)C(=O)N[C@@H](CCC(=O)O)C(=O)N[C@@H](Cc1c[nH]c2ccccc12)C(=O)N[C@@H](CC(C)C)C(=O)N[C@@H](CCCCN)C(=O)N[C@@H](CCC(N)=O)C(=O)NCC(=O)NCC(=O)N1CCC[C@H]1C(=O)N[C@@H](CO)C(=O)N[C@@H](CCCCN)C(=O)N[C@@H](CCC(=O)O)C(=O)N[C@H](C(=O)N[C@H](C(=O)N[C@@H](CO)C(=O)NCCCC(=O)NCCOCCOCC(=O)NCCCC(=O)NCCCCC(N)C(=O)N1CCSC1)[C@@H](C)CC)[C@@H](C)CC (stereo partly drawn) [Compound 5932],"decrease in body weight, measurable at day 2",body weight does not return to pre-treatment levels by day 5,63%,–
CC[C@H](C)[C@H](NC(=O)[C@H](Cc1ccccc1)NC(=O)[C@H](CC(C)C)NC(=O)[C@H](CCCNC(=N)N)NC(=O)[C@@H](NC(=O)[C@H](C)NC(=O)[C@H](CCC(=O)O)NC(=O)[C@H](CCC(=O)O)NC(=O)[C@H](CCC(=O)O)NC(=O)[C@H](CC(C)C)NC(=O)[C@H](CCC(N)=O)NC(=O)[C@H](CCCCN)NC(=O)[C@H](CO)NC(=O)[C@H](CC(C)C)NC(=O)[C@H](CC(=O)O)NC(=O)[C@H](CO)NC(=O)[C@@H](NC(=O)[C@H](Cc1ccccc1)NC(=O)[C@@H](NC(=O)CNC(=O)[C@H](CCC(=O)O)NC(=O)CNC(=O)[C@@H](N)Cc1c[nH]cn1)[C@@H](C)O)[C@@H](C)O)C(C)C)C(=O)N[C@@H](CCC(=O)O)C(=O)N[C@@H](Cc1c[nH]c2ccccc12)C(=O)N[C@@H](CC(C)C)C(=O)N[C@@H](CCCCN)C(=O)N[C@@H](CCC(N)=O)C(=O)NCC(=O)NCC(=O)N1CCC[C@H]1C(=O)N[C@@H](CO)C(=O)N[C@@H](CCCCN)C(=O)N[C@@H](CCC(=O)O)C(=O)N[C@H](C(=O)N[C@H](C(=O)N[C@@H](CO)C(=O)NCCCC(=O)NCCOCCOCC(=O)NCCCC(=O)NCCCCC(N)C(=O)N1CCC[C@H]1C#N)[C@@H](C)CC)[C@@H](C)CC (stereo partly drawn) [Compound 5933],"decrease in body weight, measurable at day 2 which continues at least through day 5",–,87%,–
CC[C@H](C)[C@H](NC(=O)[C@H](Cc1ccccc1)NC(=O)[C@H](CC(C)C)NC(=O)[C@H](CCCNC(=N)N)NC(=O)[C@@H](NC(=O)[C@H](C)NC(=O)[C@H](CCC(=O)O)NC(=O)[C@H](CCC(=O)O)NC(=O)[C@H](CCC(=O)O)NC(=O)[C@H](CC(C)C)NC(=O)[C@H](CCC(N)=O)NC(=O)[C@H](CCCCN)NC(=O)[C@H](CO)NC(=O)[C@H](CC(C)C)NC(=O)[C@H](CC(=O)O)NC(=O)[C@H](CO)NC(=O)[C@@H](NC(=O)[C@H](Cc1ccccc1)NC(=O)[C@@H](NC(=O)CNC(=O)[C@H](CCC(=O)O)NC(=O)CNC(=O)[C@@H](N)Cc1c[nH]cn1)[C@@H](C)O)[C@@H](C)O)C(C)C)C(=O)N[C@@H](CCC(=O)O)C(=O)N[C@@H](Cc1c[nH]c2ccccc12)C(=O)N[C@@H](CC(C)C)C(=O)N[C@@H](CCCCN)C(=O)N[C@@H](CCC(N)=O)C(=O)NCC(=O)NCC(=O)N1CCC[C@H]1C(=O)N[C@@H](CO)C(=O)N[C@@H](CCCCN)C(=O)N[C@@H](CCC(=O)O)C(=O)N[C@H](C(=O)N[C@H](C(=O)N[C@@H](CO)C(=O)NCCOCCOCC(=O)NCCCC[C@H](N)C(=O)N1CC[S+]([O-])C1)[C@@H](C)CC)[C@@H](C)CC (stereo partly drawn) [Compound 5934],–,–,97%,–
CC[C@H](C)[C@H](NC(=O)[C@H](Cc1ccccc1)NC(=O)[C@H](CC(C)C)NC(=O)[C@H](CCCNC(=N)N)NC(=O)[C@@H](NC(=O)[C@H](C)NC(=O)[C@H](CCC(=O)O)NC(=O)[C@H](CCC(=O)O)NC(=O)[C@H](CCC(=O)O)NC(=O)[C@H](CC(C)C)NC(=O)[C@H](CCC(N)=O)NC(=O)[C@H](CCCCN)NC(=O)[C@H](CO)NC(=O)[C@H](CC(C)C)NC(=O)[C@H](CC(=O)O)NC(=O)[C@H](CO)NC(=O)[C@@H](NC(=O)[C@H](Cc1ccccc1)NC(=O)[C@@H](NC(=O)CNC(=O)[C@H](CCC(=O)O)NC(=O)CNC(=O)[C@@H](N)Cc1c[nH]cn1)[C@@H](C)O)[C@@H](C)O)C(C)C)C(=O)N[C@@H](CCC(=O)O)C(=O)N[C@@H](Cc1c[nH]c2ccccc12)C(=O)N[C@@H](CC(C)C)C(=O)N[C@@H](CCCCN)C(=O)N[C@@H](CCC(N)=O)C(=O)NCC(=O)NCC(=O)N1CCC[C@H]1C(=O)N[C@@H](CO)C(=O)N[C@@H](CCCCN)C(=O)N[C@@H](CCC(=O)O)C(=O)N[C@H](C(=O)N[C@H](C(=O)N[C@@H](CO)C(=O)NCCOCCOCC(=O)NCCCCC(N)C(=O)N1CCSC1)[C@@H](C)CC)[C@@H](C)CC (stereo partly drawn) [Compound 5953],–,–,76%,–
"CC[C@H](C)[C@H](NC(=O)[C@H](Cc1ccccc1)NC(=O)[C@H](CC(C)C)NC(=O)[C@H](CCCNC(=N)N)NC(=O)[C@@H](NC(=O)[C@H](C)NC(=O)[C@H](CCC(=O)O)NC(=O)[C@H](CCC(=O)O)NC(=O)[C@H](CCC(=O)O)NC(=O)[C@H](CC(C)C)NC(=O)[C@H](CCC(N)=O)NC(=O)[C@H](CCCCN)NC(=O)[C@H](CO)NC(=O)[C@H](CC(C)C)NC(=O)[C@H](CC(=O)O)NC(=O)[C@H](CO)NC(=O)[C@@H](NC(=O)[C@H](Cc1ccccc1)NC(=O)[C@@H](NC(=O)CNC(=O)[C@H](CCC(=O)O)NC(=O)CNC(=O)[C@@H](N)Cc1c[nH]cn1)[C@@H](C)O)[C@@H](C)O)C(C)C)C(=O)N[C@@H](CCC(=O)O)C(=O)N[C@@H](Cc1c[nH]c2ccccc12)C(=O)N[C@@H](CC(C)C)C(=O)N[C@@H](CCCCN)C(=O)N[C@@H](CCC(N)=O)C(=O)NCC(=O)NCC(=O)N1CCC[C@H]1C(=O)N[C@@H](CO)C(=O)N[C@@H](CCCCN)C(=O)N[C@@H](CCC(=O)O)C(=O)N[C@H](C(=O)N[C@H](C(=O)N[C@@H](CO)C(=O)NCCOCCOCC(=O)NCCCC[C@H](N)C(=O)N1CCC[C@H]1C#N)[C@@H](C)CC)[C@@H](C)CC [Compound 5954, [^14Leu,^28Gln]Exendin-4-(1-32)-fGLP-1-(33-37)-miniPEG-(S)-2,6-diamino-1-(pyrrolidin-2-cyano-1-yl)hexan-1-amide]",–,–,57%,–
CC[C@H](C)[C@H](NC(=O)[C@H](Cc1ccccc1)NC(=O)[C@H](CC(C)C)NC(=O)[C@H](CCCNC(=N)N)NC(=O)[C@@H](NC(=O)[C@H](C)NC(=O)[C@H](CCC(=O)O)NC(=O)[C@H](CCC(=O)O)NC(=O)[C@H](CCC(=O)O)NC(=O)[C@H](CC(C)C)NC(=O)[C@H](CCC(N)=O)NC(=O)[C@H](CCCCN)NC(=O)[C@H](CO)NC(=O)[C@H](CC(C)C)NC(=O)[C@H](CC(=O)O)NC(=O)[C@H](CO)NC(=O)[C@@H](NC(=O)[C@H](Cc1ccccc1)NC(=O)[C@@H](NC(=O)CNC(=O)[C@H](CCC(=O)O)NC(=O)CNC(=O)[C@@H](N)Cc1c[nH]cn1)[C@@H](C)O)[C@@H](C)O)C(C)C)C(=O)N[C@@H](CCC(=O)O)C(=O)N[C@@H](Cc1c[nH]c2ccccc12)C(=O)N[C@@H](CC(C)C)C(=O)N[C@@H](CCCCN)C(=O)N[C@@H](CCC(N)=O)C(=O)NCC(=O)NCC(=O)N1CCC[C@H]1C(=O)N[C@@H](CO)C(=O)N[C@@H](CCCCN)C(=O)N[C@@H](CCC(=O)O)C(=O)N[C@H](C(=O)N[C@H](C(=O)N[C@@H](CO)C(=O)NCCCC(=O)NCCOCCOCC(=O)NCCCC(=O)NCCCCC(N)C(=O)N1CCS(=O)(=O)C1)[C@@H](C)CC)[C@@H](C)CC (stereo partly drawn) [Compound 5955],"decrease in body weight, measurable at day 2",body weight returns to pre-treatment levels by day 5,36%,–
^36N-methyl-Tyr-amide-PYY(34-36) (Gln-Arg-[NMeY]-NH2; N-terminus assumed; SMILES CN(C(=O)[C@H](CCCNC(=N)N)NC(=O)[C@@H](N)CCC(N)=O)[C@@H](Cc1ccc(O)cc1)C(N)=O) [N-terminal truncation of 36N-methyl-Tyr-amide-PYY(3-36)],–,–,–,did not inhibit
